What was measured:
[1] = test system: human cell lines (head and neck, breast, and gastric); settings: cited from earlier work
[2] = test system: activation of EGFR, erbB2, Erk1/2, and Akt; settings: treatment of tumor xenografts; cited from earlier work
[3] = molecular target: T1, Her2-Her3 heterodimers (Homo sapiens, UniProt P21860); assay: Releasable molecular tag assay of cell lysates for Her2-Her3 heterodimers; format: cell-based; settings: MCF-7 cells, increasing ligand concentrations, 10 minutes at 37° C., FIG. 4C
T1 construct: endogenous in cells; host or cells: MCF-7
Experimental: Measurements are made using three binding compounds and a cleaving probe as described below.
7.3.1 Sample Preparation: • 1. Serum-starve breast cancer cell line culture overnight before use. • 2. […] Aspirate culture media, transfer onto ice, and add lysis buffer to lyse cells in situ. • 4. Scrape and transfer lysate to microfuge tube. Incubate on ice for 30 min. Microfuge at 14,000 rpm, 4° C., for 10 min. (Centrifugation is optional.) • 5. Collect supernatants as lysates and aliquot for storage at −80° C. until use.
Assay design: As illustrated diagrammatically in FIG. 4A, Her2-Her3 heterodimers (900) are quantified ratiometrically based on the binding of cleaving probe (902) and binding compounds (904), (906), and (908). A photosensitizer indicated by “PS” is attached to cleaving probe (902) via an avidin-biotin linkage, and binding compounds (904), (906), and (908) are labeled with molecular tags Pro14, Pro10, and Pro11, respectively. Binding compound (904) is specific for a phosphorylation site on Her3.
The total assay volume is 40 ul. The lysate volume is adjusted to 30 ul with lysis buffer. […]
7.3.3 Data Analysis: • 1. Normalize relative fluorescence units (RFU) signal of each molecular tag against CE reference standard A315 (a fluorescein-derivatized deoxyadenosine monophosphate that has known peak position relative to molecular tags from the assay upon electrophoretic separation). • 2. […]

[4] = test system: Her1 phosphorylation; assay: Releasable molecular tag assay of cell lysates for Her1 phosphorylation; format: cell-based, human; settings: BT-20 cells, increasing ligand concentration, FIG. 6B
Experimental: Sample preparation was carried out essentially as described in Example 2.
Assay design: A monoclonal antibody specific to the receptor is separately conjugated with either a molecular tag or biotin (that is then linked to a photosensitizer via an avidin bridge), so that the cleaving probe and a binding compound compete to bind to the same epitope in this example. Another binding compound is used that consists of a second antibody recognizing an overlapping epitope on the receptor, so that a ratiometric signal can be generated as a measure of homodimerization. The signal derived from the second antibody also provides a measure of the total amount of receptor in a sample. The total amount of receptor is determined in a separate assay well. Receptor phosphorylation can be quantified together with either homodimerization or total receptor amount.
The assay volume is 40 ul and the general procedure is similar to that of Example 2. Two assay wells, A and B, are set up for each sample to quantify homodimerization and total amount of receptor separately.
• Pro10_anti-Her-1: 0.05-0.1 ug/ml • Pro2_anti-phospho-Tyr: 0.1 ug/ml • Biotin_anti-Her-1: 1-2 ug/ml
7.5.2 Data Analysis: • 1. Normalize RFU signal of each molecular tag against CE reference standard A315. • 2. Subtract RFU of “no lysate” background control from corresponding molecular tag signals. • 3. […]

[5] = test system: Her receptor phosphorylation; assay: Fixed cell pellet sections, receptor phosphorylation; format: cell-based, human; settings: 100 nM vs non-stimulated
Experimental: In this example, model fixed tissues made from pelleted cell lines were assayed for the presence of Her receptor dimers. The assay design for heterodimers was essentially the same as that described in FIG. 4A, with exceptions as noted below. That is, four components are employed: (i) a cleaving probe comprising a biotinylated monoclonal antibody conjugated to a cleavage-inducing moiety (in this example, a photosensitizer-derivatized streptavidin, as illustrated in FIG. 3E) and specific for one of the receptors of the dimer, (ii) a monoclonal antibody derivatized with a first molecular tag and specific for the same receptor as the cleaving probe, (iii) a monoclonal antibody derivatized with a second molecular tag and specific for the receptor opposite to that the cleaving probe is specific for, and (iv) a monoclonal antibody derivatized with a third molecular tag and specific for an intracellular phosphorylated tyrosine. The assay design for homodimers was essentially the same as that described in FIG. 1D, with exceptions as noted below.
In each case, model fixed tissues were prepared as follows: cells grown on tissue culture plates were stimulated with either EGF or HRG as described in the prior examples, after which they were washed and removed by scrapping. […]

Row | Molecule | IC90, growth inhibition of human cell lines ([1]; head and neck, breast, and gastric cell lines in vitro) [µg/mL] | outgrowth following cessation of treatment ([1]; up to 18 days following cessation of treatment) | activation of EGFR, erbB2, Erk1/2, and Akt in tumor xenografts [2] | quantity of Her2-Her3 heterodimers [3] | quantity of Her1 phosphorylation [4] | Her receptor phosphorylation ([5]; fixed pellets of 22Rv1 cells, FIG. 15D) | intracellular phosphorylation ([5]; fixed pellets of MDA-MB-468 cells, FIG. 15A)
1 | CS(=O)(=O)CCNCc1ccc(-c2ccc3ncnc(Nc4ccc(OCc5cccc(F)c5)c(Cl)c4)c3c2)o1 [GW572016] | < 1.313 | no outgrowth observed | inhibition | – | – | – | –
2 | EGF: epidermal growth factor, peptide that binds to the cell-surface EGFR; used to stimulate cell lines | – | – | – | essentially no change | increases | up-regulation | increases

Reference: patent US20080254497A1, “Response Predictors for Erbb Pathway-Specific Drugs” (MONOGRAM BIOSCIENCES, INC., priority 2004, published 2008)
